# Test results taken from patent US12522595B2, “Bicyclic ether O-glycoprotein-2-acetamido-2-deoxy-3-D-glucopyranosidase inhibitors” (BIOGEN MA INC., priority 2019, dated 2026).
# Target: T1, Recombinant full length human OGA enzyme (Homo sapiens, UniProt O60502)
# T1 construct: Recombinant full length human OGA enzyme was purchased from Origene; purchased Origene
# T1 sequence (O60502 1-916): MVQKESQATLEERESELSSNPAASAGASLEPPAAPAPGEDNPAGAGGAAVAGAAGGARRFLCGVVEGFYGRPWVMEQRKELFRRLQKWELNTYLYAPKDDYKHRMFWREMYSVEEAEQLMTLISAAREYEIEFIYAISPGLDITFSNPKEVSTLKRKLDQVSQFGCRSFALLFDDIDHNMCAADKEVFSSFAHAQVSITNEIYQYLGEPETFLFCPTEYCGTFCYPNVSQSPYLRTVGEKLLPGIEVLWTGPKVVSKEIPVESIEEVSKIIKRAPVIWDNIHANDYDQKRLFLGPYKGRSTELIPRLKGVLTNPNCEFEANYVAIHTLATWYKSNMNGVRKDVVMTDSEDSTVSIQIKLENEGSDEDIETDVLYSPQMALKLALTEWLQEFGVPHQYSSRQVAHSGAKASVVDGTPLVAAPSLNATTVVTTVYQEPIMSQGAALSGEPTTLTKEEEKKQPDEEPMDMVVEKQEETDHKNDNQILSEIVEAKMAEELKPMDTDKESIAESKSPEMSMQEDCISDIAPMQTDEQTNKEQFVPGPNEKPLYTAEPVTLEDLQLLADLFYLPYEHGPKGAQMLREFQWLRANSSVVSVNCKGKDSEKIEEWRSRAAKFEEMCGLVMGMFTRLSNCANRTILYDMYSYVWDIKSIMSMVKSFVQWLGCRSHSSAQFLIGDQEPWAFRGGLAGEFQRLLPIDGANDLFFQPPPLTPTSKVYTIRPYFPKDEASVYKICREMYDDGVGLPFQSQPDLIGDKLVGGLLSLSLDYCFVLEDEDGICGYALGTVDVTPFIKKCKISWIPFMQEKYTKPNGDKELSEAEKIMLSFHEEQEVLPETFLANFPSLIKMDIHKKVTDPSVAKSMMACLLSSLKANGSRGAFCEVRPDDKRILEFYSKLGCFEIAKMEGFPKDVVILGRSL
# Test: OGA enzyme inhibition biochemical assay
# Conditions: 1 nM OGA, 100 μM 4-MUGlcNAc (Km), pH 6.4, 90 minutes at room temperature, 10-point dose-response from 20 μM
# Procedure: N-(5-(((2S,4R)-4-([1,2,4]triazolo[4,3-a]pyrazin-3-yloxy)-2-methylpyrrolidin-1-yl)methyl)-4-fluorothiazol-2-yl)acetamide: The title compound was prepared in an analogous manner as Example 172 from 3-bromo-[1,2,4]triazolo[4,3-a]pyrazine. LCMS (ESI): [M+H] 392. ^1H NMR (600 MHz, CHLOROFORM-d) δ 10.75 (br s, 1H), 9.04 (s, 1H), 9.03 (s, 1H), 7.24 (s, 1H), 4.99-5.06 (m, 1H), 4.01 (d, J=14.49 Hz, 1H), 3.64 (d, J=14.67 Hz, 1H), 3.40 (d, J=11.55 Hz, 1H), 2.75 (dd, J=5.78, 11.46 Hz, 1H), 2.61-2.72 (m, 2H), 2.32 (s, 4H), 1.84-1.92 (m, 1H), 1.30 (d, J=5.87 Hz, 4H). ^19F NMR (565 MHz, CHLOROFORM-d) 6-115.92 (br s, 1F). OGA Enzyme Inhibition Biochemical Assay
# Recombinant full length human OGA enzyme was purchased from Origene. 4-MUGlCNAc substrate was purchased from Sigma. All other reagents were purchased from Sigma or Fisher. Assay buffer consists of the McIlvaine buffer system, pH 6.4 (0.2M Na2HPO4 mixed with 0.1M citric acid) and 0.01% BSA. Reactions consist of 1 nM OGA, 100 μM 4-MUGlcNAc (Km), and compound in a final volume of 10 μl. Reactions were incubated for 90 minutes at room temperature and quenched with 40 μl of 3M glycine, pH 10 and read on a Perkin Elmer Envision plate reader (Ex: 355 nm/Em: 460 nm). Compounds were tested with a 10-point dose-response starting from 20 μM with a 4-fold dilution. Data, as presented in Table 1 below, was fit using GraphPad Prism using a 4-parameter fit with variable slope.
row,Structure (SMILES),IC50
1,"CC(=O)Nc1ncc(CN2C[C@H](Oc3ccnc4ccc(C)cc34)C[C@@H]2C)s1 [Example 23, N-(5-(((2S,4R)-2-methyl-4-((6-methylquinolin-4-yl)oxy)pyrrolidin-1-yl)methyl)thiazol-2-yl)acetamide]",2.4 nM
2,"CC(=O)Nc1ncc(CN2C[C@H](Oc3ncnc4occc34)C[C@@H]2C)s1 [Example 46, N-(5-(((2S,4R)-4-(furo[2,3-d]pyrimidin-4-yloxy)-2-methylpyrrolidin-1-yl)methyl)thiazol-2-yl)acetamide]",1.1 nM
3,"CC(=O)Nc1nc(F)c(CN2C[C@H](Oc3ccc4nc(C)nn4c3)C[C@@H]2C)s1 [Example 144, N-(4-fluoro-5-(((2S,4R)-2-methyl-4-((2-methyl-[1,2,4]triazolo[1,5-a]pyridin-6-yl)oxy)pyrrolidin-1-yl)methyl)thiazol-2-yl)acetamide]",< 1 nM
4,"CC(=O)Nc1nc(F)c(CN2C[C@H](Oc3ncnc4ccoc34)C[C@@H]2C)s1 [Example 94, N-(4-fluoro-5-(((2S,4R)-4-(furo[3,2-d]pyrimidin-4-yloxy)-2-methylpyrrolidin-1-yl)methyl)thiazol-2-yl)acetamide]",< 1 nM
5,"CC(=O)Nc1nc(F)c(CN2C[C@H](Oc3cc4cnn(C)c4cn3)C[C@@H]2C)s1 [Example 90, N-(4-fluoro-5-(((2S,4R)-2-methyl-4-((1-methyl-1H-pyrazolo[3,4-c]pyridin-5-yl)oxy)pyrrolidin-1-yl)methyl)thiazol-2-yl)acetamide]",< 1 nM
6,"CC(=O)Nc1nc(F)c(CN2C[C@H](Oc3ccnc4cc(F)cnc34)C[C@@H]2C)s1 [Example 129, N-(4-fluoro-5-(((2S,4R)-4-((7-fluoro-1,5-naphthyridin-4-yl)oxy)-2-methylpyrrolidin-1-yl)methyl)thiazol-2-yl)acetamide]",< 1 nM
7,"COc1ccc2ccc(O[C@@H]3C[C@H](C)N(Cc4cnc(NC(C)=O)s4)C3)nc2c1 [Example 79, N-(5-(((2S,4R)-4-((7-methoxyquinolin-2-yl)oxy)-2-methylpyrrolidin-1-yl)methyl)thiazol-2-yl)acetamide]",< 1 nM
8,"CC(=O)Nc1ncc(CN2C[C@H](Oc3cnc4cc(F)c(F)cc4n3)C[C@@H]2C)s1 [Example 9, N-(5-(((2S,4R)-4-((6,7-difluoroquinoxalin-2-yl)oxy)-2-methylpyrrolidin-1-yl)methyl)thiazol-2-yl)acetamide]",< 1 nM
9,"CC(=O)Nc1ncc(CN2C[C@H](Oc3nccn4ccnc34)C[C@@H]2C)s1 [Example 95, N-(5-(((2S,4R)-4-(imidazo[1,2-a]pyrazin-8-yloxy)-2-methylpyrrolidin-1-yl)methyl)thiazol-2-yl)acetamide]",5.3 nM
10,"CC(=O)Nc1nc(F)c(CN2C[C@H](Oc3ncnc4ccc(F)cc34)C[C@@H]2C)s1 [Example 123, N-(4-fluoro-5-(((2S,4R)-4-((6-fluoroquinazolin-4-yl)oxy)-2-methylpyrrolidin-1-yl)methyl)thiazol-2-yl)acetamide]",4.1 nM
11,"CC(=O)Nc1nc(F)c(CN2C[C@H](Oc3ncc4ncn(C)c4n3)C[C@@H]2C)s1 [Example 113, N-(4-fluoro-5-(((2S,4R)-2-methyl-4-((9-methyl-9H-purin-2-yl)oxy)pyrrolidin-1-yl)methyl)thiazol-2-yl)acetamide]",< 1 nM
12,"CC(=O)Nc1ncc(CN2C[C@H](Oc3ccc4ncoc4c3)C[C@@H]2C)s1 [Example 45, N-(5-(((2S,4R)-4-(benzo[d]oxazol-6-yloxy)-2-methylpyrrolidin-1-yl)methyl)thiazol-2-yl)acetamide]",< 1 nM
13,"CC(=O)Nc1nc(F)c(CN2C[C@H](Oc3ccc4nccnc4n3)C[C@@H]2C)s1 [Example 117, N-(4-fluoro-5-(((2S,4R)-2-methyl-4-(pyrido[2,3-b]pyrazin-6-yloxy)pyrrolidin-1-yl)methyl)thiazol-2-yl)acetamide]",< 1 nM
14,"CC(=O)Nc1nc(F)c(CN2C[C@H](Oc3nccn4cnnc34)C[C@@H]2C)s1 [Example 101, N-(5-(((2S,4R)-4-([1,2,4]triazolo[4,3-a]pyrazin-8-yloxy)-2-methylpyrrolidin-1-yl)methyl)-4-fluorothiazol-2-yl)acetamide]",< 1 nM
15,"CC(=O)Nc1nc(F)c(CN2C[C@H](Oc3cccc4ncnn34)C[C@@H]2C)s1 [Example 102, N-(5-(((2S,4R)-4-([1,2,4]triazolo[1,5-a]pyridin-5-yloxy)-2-methylpyrrolidin-1-yl)methyl)-4-fluorothiazol-2-yl)acetamide]",< 1 nM

# Second part, the compound after the results:
row,IC50,Structure (SMILES)
1,< 1 nM,"CC(=O)Nc1nc(F)c(CN2C[C@H](Oc3ccc4nn(C)cc4c3)C[C@@H]2C)s1 [Example 50, N-(4-fluoro-5-(((2S,4R)-2-methyl-4-((2-methyl-2H-indazol-5-yl)oxy)pyrrolidin-1-yl)methyl)thiazol-2-yl)acetamide]"
2,< 1 nM,"CC(=O)Nc1nc(F)c(CN2C[C@H](Oc3cc4cn(C)nc4cn3)C[C@@H]2C)s1 [Example 89, N-(4-fluoro-5-(((2S,4R)-2-methyl-4-((2-methyl-2H-pyrazolo[3,4-c]pyridin-5-yl)oxy)pyrrolidin-1-yl)methyl)thiazol-2-yl)acetamide]"
3,< 1 nM,"CC(=O)Nc1ncc(CN2C[C@H](Oc3cccc4cn(C)nc34)C[C@@H]2C)s1 [Example 159, N-(5-(((2S,4R)-2-methyl-4-((2-methyl-2H-indazol-7-yl)oxy)pyrrolidin-1-yl)methyl)thiazol-2-yl)acetamide]"
4,< 1 nM,"CC(=O)Nc1ncc(CN2C[C@H](Oc3ccnc4nn(C)cc34)C[C@@H]2C)s1 [Example 85, N-(5-(((2S,4R)-2-methyl-4-((2-methyl-2H-pyrazolo[3,4-b]pyridin-4-yl)oxy)pyrrolidin-1-yl)methyl)thiazol-2-yl)acetamide]"
5,< 1 nM,"CC(=O)Nc1ncc(CN2C[C@H](Oc3c(Cl)ccn4ccnc34)C[C@@H]2C)s1 [Example 38, N-(5-(((2S,4R)-4-((7-chloroimidazo[1,2-a]pyridin-8-yl)oxy)-2-methylpyrrolidin-1-yl)methyl)thiazol-2-yl)acetamide]"
6,< 1 nM,"CC(=O)Nc1nc(F)c(CN2C[C@H](Oc3nccc4ncccc34)C[C@@H]2C)s1 [Example 114, N-(5-(((2S,4R)-4-((1,6-naphthyridin-5-yl)oxy)-2-methylpyrrolidin-1-yl)methyl)-4-fluorothiazol-2-yl)acetamide]"
7,< 1 nM,"COc1cccn2nc(O[C@@H]3C[C@H](C)N(Cc4sc(NC(C)=O)nc4F)C3)nc12 [Example 148, N-(4-fluoro-5-(((2S,4R)-4-((8-methoxy-[1,2,4]triazolo[1,5-a]pyridin-2-yl)oxy)-2-methylpyrrolidin-1-yl)methyl)thiazol-2-yl)acetamide]"
8,< 1 nM,"CC(=O)Nc1ncc(CN2C[C@H](Oc3cc4cnn(C)c4cn3)C[C@@H]2C)s1 [Example 88, N-(5-(((2S,4R)-2-methyl-4-((1-methyl-1H-pyrazolo[3,4-c]pyridin-5-yl)oxy)pyrrolidin-1-yl)methyl)thiazol-2-yl)acetamide]"
9,< 1 nM,"CC(=O)Nc1nc(F)c(CN2C[C@H](Oc3ccn4nncc4c3)C[C@@H]2C)s1 [Example 149, N-(5-(((2S,4R)-4-([1,2,3]triazolo[1,5-a]pyridin-5-yloxy)-2-methylpyrrolidin-1-yl)methyl)-4-fluorothiazol-2-yl)acetamide]"
10,< 1 nM,"CC(=O)Nc1nc(F)c(CN2C[C@H](Oc3ncnc4cnccc34)C[C@@H]2C)s1 [Example 118, N-(4-fluoro-5-(((2S,4R)-2-methyl-4-(pyrido[3,4-d]pyrimidin-4-yloxy)pyrrolidin-1-yl)methyl)thiazol-2-yl)acetamide]"
